Data taken from patent publication US10633399B2, “Functionalized aminobenzoboroxoles” (Channel Therapeutics, Inc., priority 2015, dated 2020).

Tests used:
[1] = Cell viability assay (MTT), MIAPaCa-2; details: human, MIAPaCa-2 pancreatic cancer cells
Experimental: (§1) After synthesizing the functionalized aminobenzoboroxoles, these molecules were evaluated for their general cytotoxicity against breast cancer cell lines (MDA-MB-231) and pancreatic cancer cell lines (MIAPaCa-2).
(§2) Human pancreatic cancer MIAPaCa-2 cells were purchased from ATCC and were maintained in D-MEM supplemented with 10% FBS, 2.5% horse serum, and 1% Penicillin Streptomycin in a humidified atmosphere of 5% CO2 at 37° C. Human breast cancer MDA-MB-231 cells were purchased from ATCC and were maintained in D-MEM supplemented with 10% FBS and 1% Penicillin Streptomycin in a humidified atmosphere of 5% CO2 at 37° C. […] DMSO was added as a negative control. To determine the cell viability, MTT (3-(4,5-dimethylthiazolyl-2)-2,5-diphenyltetrazolium bromide) was dissolved in PBS solution (5 mg/mL) and 10 μL was added to each well and incubated. After 4 hours, 100 μL of SDS (sodium dodecyl sulfate) solution (1 g in 10 mL of 0.01 N HCl) was added to solubilize formazan precipitate and incubated for an additional 4 hours. The absorbance of each well was then measured using a microplate reader at 570 nm. The absorbance of control wells was defined as 100% viability and all of the tested compounds were expressed as percentage relative to the control.

[2] = Cell viability assay (MTT), MDA-MB-231; details: human, MDA-MB-231 breast cancer cells
Experimental: as §1, §2

[3] = tested on: Human pancreatic cancer MIAPaCa-2 cells; test: Cell viability assay (MTT), MIAPaCa-2; details: for activity against MIAPaCa-2 cell lines: 12.5 μM concentration; for IC50: Homo sapiens, MIA PaCa-2
Experimental: as §1, §2

[4] = tested on: Human breast cancer MDA-MB-231 cells; test: Cell viability assay (MTT), MDA-MB-231; details: Homo sapiens, MDA-MB-231
Experimental: as §1, §2

Compound | melting point [°C] | viability at 72 h, 12.5 µM [1] [%] | viability at 72 h, 50 µM [1] [%] | viability at 72 h, 12.5 µM [2] [%] | viability at 72 h, 50 µM [2] [%] | activity against MIAPaCa-2 cell lines [3] | IC50 [3] [µM] | IC50 [4] [µM]
OB1OCc2ccc(NCc3ccccc3)cc21 [Compound 2] | 123 to 125 | 76.6 | 34.5 | 73.7 | 80.2 | – | – | –
OB1OCc2ccc(NCc3ccc(F)cc3)cc21 [Compound 3] | 135 to 137 | 87.2 | 73.6 | 84 | 91.7 | – | – | –
OB1OCc2ccc(NCc3ccc(F)cc3F)cc21 [Compound 4] | 136 to 138 | 90.9 | 63.9 | 80.2 | 90 | – | – | –
OB1OCc2ccc(NCc3ccc(Cl)cc3Cl)cc21 [Compound 5] | 106 to 108 | 86.4 | 65.8 | 75.2 | 75.7 | – | – | –
OB1OCc2ccc(NCc3ccc(Cl)c(Cl)c3)cc21 [Compound 6] | 128 to 130 | 95.3 | 62.6 | 69.2 | 68.7 | – | – | –
O=C(O)c1ccc(CNc2ccc3c(c2)B(O)OC3)cc1 [Compound 7] | 221 to 223 | 71.3 | 80.6 | 100 | 124 | – | – | –
N#Cc1ccc(CNc2ccc3c(c2)B(O)OC3)cc1 [Compound 8] | 141 to 143 | 80.8 | 47 | 77.7 | 109 | – | – | –
Cc1ccc(CNc2ccc3c(c2)B(O)OC3)cc1 [Compound 9] | 148 to 150 | 57.2 | 45.9 | 84.1 | 82.8 | – | – | –
COc1ccc(CNc2ccc3c(c2)B(O)OC3)cc1 [Compound 10, 6-N-(p-methoxybenzyl)aminobenzoboroxole] | 122 to 124 | 51.8 | 37.9 | 90.2 | 90 | – | – | –
CN(C)c1ccc(CNc2ccc3c(c2)B(O)OC3)cc1 [Compound 11] | 122 to 124 | 72.1 | 78.4 | 97.6 | 71.1 | – | – | –
CCCCN(CCCC)c1ccc(CNc2ccc3c(c2)B(O)OC3)cc1 [Compound 12] | 94 to 96 | 89.1 | 58.2 | 106 | 103 | – | – | –
OB1OCc2ccc(NCc3ccc(N4CCCCC4)cc3)cc21 [Compound 13] | 65 to 67 | 92 | 49.5 | 93.9 | 90.7 | – | – | –
OB1OCc2ccc(NCc3ccc4c(c3)OCO4)cc21 [Compound 14] | 136 to 138 | 88.9 | 69 | 88.5 | 102 | – | – | –
O=C(Nc1ccc([N+](=O)[O-])c(C(F)(F)F)c1)c1ccc(CNc2ccc3c(c2)B(O)OC3)cc1 [Compound 15] | 117 to 119 | – | – | – | – | – | – | –
OB1OCc2ccc(NCc3cc4ccccc4nc3Cl)cc21 [Compound 16] | 209 to 211 | 28.2 | 28.6 | 44.3 | 44.8 | showed activity | 8.3 | 11.5
O=NN(Cc1ccccc1)c1ccc2c(c1)B(O)OC2 [Compound 17] | 108 to 110 | 83.5 | 51.5 | 121 | 115 | – | – | –
COc1ccc(CN(N=O)c2ccc3c(c2)B(O)OC3)cc1 [Compound 18, 6-N-nitroso-N-(p-methoxybenzyl)amino-benzoboroxole] | 109 to 111 | 83 | 61 | 119 | 123 | – | – | –
O=NN(Cc1ccc(F)cc1)c1ccc2c(c1)B(O)OC2 [Compound 19] | 121 to 123 | 77.7 | 62.8 | 128 | 108 | – | – | –
O=NN(Cc1ccc(F)cc1F)c1ccc2c(c1)B(O)OC2 [Compound 20] | 125 to 127 | 70.3 | 70.5 | 122 | 126 | – | – | –
O=NN(Cc1ccc(Cl)cc1Cl)c1ccc2c(c1)B(O)OC2 [Compound 21] | 121 to 123 | 95.7 | 69.5 | 134 | 106 | – | – | –
O=NN(Cc1ccc(Cl)c(Cl)c1)c1ccc2c(c1)B(O)OC2 [Compound 22] | 144 to 147 | 84.8 | 59.9 | 122 | 146 | – | – | –
O=C(Nc1ccccc1)N(Cc1ccccc1)c1ccc2c(c1)B(O)OC2 [Compound 23] | 116 to 118 | 49.6 | 30 | 116 | 47 | – | – | –
COc1ccc(CN(C(=O)Nc2ccccc2)c2ccc3c(c2)B(O)OC3)cc1 [Compound 24] | 104 to 106 | 22.4 | 17.5 | 63 | 53.9 | showed activity | 2.7 | 11.9
O=C(NC1CCCCC1)N(Cc1ccccc1)c1ccc2c(c1)B(O)OC2 [Compound 25] | 125 to 127 | 64.8 | 39.4 | 80.9 | 128 | – | – | –
COc1ccc(CN(C(=O)NC2CCCCC2)c2ccc3c(c2)B(O)OC3)cc1 [Compound 26] | 156 to 158 | 45.5 | 25.1 | 96.3 | 60.8 | – | – | –
O=C(NCCCl)N(Cc1ccccc1)c1ccc2c(c1)B(O)OC2 [Compound 27] | 138 to 140 | 104 | 61.8 | 135 | 101 | – | – | –
COc1ccc(CN(C(=O)NCCCl)c2ccc3c(c2)B(O)OC3)cc1 [Compound 28] | 134 to 136 | 74.9 | 60.4 | 95.8 | 63.2 | – | – | –
